In article PMC10333884, “Large‐scale phosphomimetic screening identifies phospho‐modulated motif‐based protein interactions” (Molecular Systems Biology, 2023):
Residues, ends and D or L forms follow the SMILES beside them.

What was measured:
[1] = biological target: T1, PDCD6IP Alix V domain (Homo sapiens, UniProt Q8WUM4); assay: FP displacement assay, PDCD6IP Alix V domain; type: binding; conditions: probe FITC-HIV1_Gag 5 nM, 50 mM sodium phosphate pH 7.4, room temperature, at least three technical replicates, read-out: KD values ± SEM
T1 construct: GST (cleaved yes); made in house; host or cells: Escherichia coli BL21-Gold(DE3)
T1 sequence (Q8WUM4 360-702): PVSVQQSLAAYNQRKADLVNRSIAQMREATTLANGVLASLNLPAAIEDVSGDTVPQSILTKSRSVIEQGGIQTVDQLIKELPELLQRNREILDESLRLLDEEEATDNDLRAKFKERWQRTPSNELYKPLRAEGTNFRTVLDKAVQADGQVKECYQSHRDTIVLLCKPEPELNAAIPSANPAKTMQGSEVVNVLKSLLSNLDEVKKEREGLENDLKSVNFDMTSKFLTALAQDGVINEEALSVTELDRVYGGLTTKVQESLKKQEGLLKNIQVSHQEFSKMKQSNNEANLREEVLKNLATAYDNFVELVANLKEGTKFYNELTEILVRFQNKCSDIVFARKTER
Procedure: (§1) FP experiments were performed as described previously (Kliche et al, [2021]). Shortly, in order to monitor the binding event, FITC‐labelled peptides were used (excitation 495 nm, emission: 535 nm) and the FP signal was recorded in mP on a SpectraMax iD5 Multi‐Mode Microplate Reader (Molecular Devices) by measuring the emitted light in two angels. The measurements were performed at room temperature and prepared in nonbinding black half area 96‐well microplates (Corning®; 50 μl/well). For measuring direct binding, that is saturation curves, a 1:1 dilution series of protein domain (25 μl/well) was generated in 50 mM sodium phosphate buffer pH 7.4 and the measurement performed with 5 nM FITC‐labelled peptide (25 μl/well). The buffer‐corrected values were subsequently plotted with PRISM and fitted to the quadratic equation (Gianni et al, [2005]).
(§2) The 1:1 dilution series in this experiment was performed with the unlabelled peptide in 50 mM sodium phosphate buffer pH 7.4, so that each well‐contained unlabelled peptide (25 μl) at a certain concentration and pre‐formed complex (25 μl). The KD values of this indirectly monitored binding event were calculated as described previously (Nikolovska‐Coleska et al, [2004]). All measurements were at least in technical triplicates as well as biological duplicates when indicated. An amplitude shift between repeat measurements in the displacement experiments was occasionally observed due to variations in the protein preparations. If that was the case, the “active” protein concentration was back‐calculated according to the quadratic equation from the saturation curves performed in parallel. By comparing the active protein concentrations in the complex between different protein preparations, the amplitude was normalised.

[2] = biological target: T1, PDCD6IP Alix V domain; assay: Phosphomimetic ProP-PD selection, PDCD6IP Alix V domain; conditions: phosphomimetic enrichment score of the wild-type/phosphomimetic (E) pair at the phosphosite, PM_HD2 phage selection; positive = phosphomimetic enhances binding; P-value in brackets not taken
Procedure: (§3) Selections using the PM_HD2 phage library were performed as described previously with minor modification to the original protocol. The corresponding tag protein (either GST or MBP) was first used during negative selections. Selections were run for 4 days. • Bait and tag proteins (10–15 μg in 100 μl PBS) were immobilised in 96‐well MaxiSorb plate (NUNC) o.n. at 4°C. • Escherichia coli OmniMax bacteria were grown in 2YT medium supplemented with tetracycline (100 μg/ml) at 37°C and 200 rpm. • Plates with immobilised bait/tag proteins were blocked with 0.5% BSA in PBS for 1 h at 4°C. • Phage library (10 μl/well) was prepared by diluting 10× with PBS and adding one‐fourth of the volume of PEG/NaCl. For phage precipitation, prepared library was incubated for 10 min on ice followed by centrifugation for 10 min at 10,000 × g at 4°C. […]
(§4) Based on the results from phage pool ELISAs, samples from selection Day 3 and 4 were selected for NGS, as described previously (Benz et al, [2022]). • Peptide coding regions were amplified and dual‐barcoded by PCR. […] From the columns, samples were eluted with 30 μl TE (10 mM Tris–HCl, 1 mM EDTA. pH 7.5) buffer and quantified with Quant‐iT PicoGreen dsDNA Assay Kit. • Samples were sequenced on MiSeq (MSC 2.5.0.5/RTA 1.18.54) with a 151 nt (Read1) setup using “Version3” chemistry. […]

[3] = biological target: T2, RANBP2 RanBD4 (Homo sapiens, UniProt P49792); assay: FP displacement assay, RANBP2 RanBD4; type: binding; conditions: probe FITC-C7orf25 5 nM, 50 mM sodium phosphate pH 7.4, room temperature, at least three technical replicates, read-out: KD values ± SEM
T2 construct: GST (cleaved yes); made in house; host or cells: Escherichia coli BL21-Gold(DE3)
T2 sequence (P49792 2924-3050): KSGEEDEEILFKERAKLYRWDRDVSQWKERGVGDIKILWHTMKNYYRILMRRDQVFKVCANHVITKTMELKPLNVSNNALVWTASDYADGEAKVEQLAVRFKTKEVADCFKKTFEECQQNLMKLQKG
Procedure: as §1, §2

[4] = biological target: T2, RANBP2 RanBD4; assay: Phosphomimetic ProP-PD selection, RANBP2 RanBD4; conditions: phosphomimetic enrichment score of the wild-type/phosphomimetic (E) pair at the phosphosite, PM_HD2 phage selection; positive = phosphomimetic enhances binding; P-value in brackets not taken
Procedure: as §3, §4

[5] = biological target: T3, GABARAPL2 (Homo sapiens, UniProt P60520); assay: Phosphomimetic ProP-PD selection, GABARAPL2; conditions: phosphomimetic enrichment score of the wild-type/phosphomimetic (E) pair at the phosphosite, PM_HD2 phage selection; positive = phosphomimetic enhances binding; P-value in brackets not taken
T3 construct: GABARAPL2_ATG8__P60520_2_115; GST (cleaved yes); made in house; host or cells: Escherichia coli BL21-Gold(DE3)
T3 sequence (P60520 2-115): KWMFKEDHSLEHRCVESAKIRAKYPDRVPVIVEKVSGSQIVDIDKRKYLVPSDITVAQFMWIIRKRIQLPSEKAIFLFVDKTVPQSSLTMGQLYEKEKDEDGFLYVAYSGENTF
Procedure: as §3, §4

[6] = biological target: T4, MAP1LC3B (Homo sapiens, UniProt Q9GZQ8); assay: FP displacement assay, MAP1LC3B; type: binding; conditions: read-out: KD values ± SEM
T4 construct: GST (cleaved yes); made in house; host or cells: Escherichia coli BL21-Gold(DE3)
Procedure: as §1, §2

[7] = biological target: T3, GABARAPL2; assay: FP displacement assay, GABARAPL2; type: binding; conditions: read-out: KD values ± SEM
Procedure: as §1, §2

[8] = biological target: T4, MAP1LC3B; assay: Phosphomimetic ProP-PD selection, MAP1LC3B; conditions: phosphomimetic enrichment score of the wild-type/phosphomimetic (E) pair at the phosphosite, PM_HD2 phage selection; positive = phosphomimetic enhances binding; P-value in brackets not taken
Procedure: as §3, §4

[9] = biological target: T5, MAP1LC3A (Homo sapiens, UniProt Q9H492); assay: FP displacement assay, MAP1LC3A; type: binding
T5 construct: GST (cleaved yes); made in house; host or cells: Escherichia coli BL21-Gold(DE3)

[10] = biological target: T5, MAP1LC3A; assay: Phosphomimetic ProP-PD selection, MAP1LC3A; conditions: phosphomimetic enrichment score of the wild-type/phosphomimetic (E) pair at the phosphosite, PM_HD2 phage selection; positive = phosphomimetic enhances binding; P-value in brackets not taken
Procedure: as §3, §4

| Kd [1] [µM] | PES [2] | Compound | PES [5] | Kd [6] [µM] | Kd [7] [µM] | PES [8] | PES [10] | further results |
| --- | --- | --- | --- | --- | --- | --- | --- | --- |
| 88 ± 7 | 0.66 (0.34) | CC(=O)N[C@H](C(=O)N[C@@H](CCC(=O)O)C(=O)N1CCC[C@H]1C(=O)N[C@@H](CC(C)C)C(=O)N[C@H](C(=O)N[C@@H](CO)C(=O)N[C@@H](CC(C)C)C(=O)N[C@@H](Cc1ccc(O)cc1)C(=O)N1CCC[C@H]1C(=O)N[C@@H](C)C(=O)N[C@@H](CC(C)C)C(=O)N[C@@H](CCC(=O)O)C(=O)N[C@@H](C)C(=O)N[C@@H](CCCNC(=N)N)C(=O)N[C@@H](C)C(=O)N[C@@H](CC(C)C)C(N)=O)C(C)C)[C@@H](C)O [OTUD5_507–522 E] (Ac-TEPLVSLYPALEARAL-NH2) | – | – | – | – | – | – |
| – | – | CC(=O)N[C@@H](Cc1c[nH]cn1)C(=O)N[C@@H](CC(C)C)C(=O)N1CCC[C@H]1C(=O)N[C@@H](CC(C)C)C(=O)N[C@@H](CC(N)=O)C(=O)N[C@@H](CCC(=O)O)C(=O)N1CCC[C@H]1C(=O)N[C@@H](CC(C)C)C(=O)N1CCC[C@H]1C(=O)NCC(=O)N[C@@H](CO)C(=O)N[C@@H](CCC(=O)O)C(=O)N[C@@H](CC(C)C)C(=O)N[C@H](C(=O)N[C@@H](CCCCN)C(=O)N[C@@H](Cc1ccc(O)cc1)C(N)=O)[C@@H](C)O [INTS6_145–159 E] (Ac-HLPLNEPLPGSELTKY-NH2) | – | – | – | – | – | Kd [3]: 1080 µM; PES [4]: −4 (0.0044) |
| 13 ± 1 | 2.9 (0.04) | CC[C@H](C)[C@H](NC(=O)[C@H](CCCCN)NC(=O)[C@H](CC(C)C)NC(=O)[C@@H]1CCCN1C(=O)[C@H](CCC(=O)O)NC(=O)[C@@H](NC(=O)[C@H](CCC(N)=O)NC(=O)[C@@H]1CCCN1C(=O)[C@H](Cc1ccc(O)cc1)NC(=O)[C@H](CC(C)C)NC(=O)[C@@H]1CCCN1C(=O)[C@H](CCCNC(=N)N)NC(=O)[C@H](CC(C)C)NC(=O)[C@@H]1CCCN1C(=O)[C@H](CO)NC(=O)[C@H](C)NC(C)=O)[C@@H](C)CC)C(N)=O [FOXK1_212–227 E] (Ac-ASPLRPLYPQIEPLKI-NH2) | – | – | – | – | – | – |
| – | – | CC(=O)N[C@@H](Cc1ccc(O)cc1)C(=O)N[C@@H](CCCCN)C(=O)N[C@@H](CCCCN)C(=O)N[C@@H](CCC(N)=O)C(=O)N[C@@H](CC(C)C)C(=O)N[C@@H](CCCCN)C(=O)N[C@@H](CCCNC(=N)N)C(=O)N[C@@H](Cc1ccccc1)C(=O)N[C@@H](CCC(=O)O)C(=O)N[C@H](C(=O)N[C@@H](CCC(=O)O)C(=O)N[C@@H](CCC(=O)O)C(=O)N[C@@H](Cc1ccccc1)C(=O)N[C@H](C(=O)N[C@@H](CC(C)C)C(=O)N[C@@H](CC(C)C)C(=O)O)C(C)C)[C@@H](C)O [ATG4C444–458 E] (Ac-YKKQLKRFETEEFVLL-OH) | 4.3 (0.0025) | 4.6 ± 0.5 | 1.8 ± 0.2 | 6 (0.00063) | 2.3 (0.015) | IC50 ([9]; Fig 4B, MAP1LC3A ATG8, FP displacement, technical triplicates, read-out: IC50 values of displacement curves, with SEM): 11 ± 1 µM; Kd ([9]; read-out: KD values ± SEM): 3.1 ± 0.2 µM |
| – | – | CC(=O)N[C@@H](CC(C)C)C(=O)N[C@@H](CCC(=O)O)C(=O)N[C@@H](CC(=O)O)C(=O)N[C@@H](CC(=O)O)C(=O)N[C@@H](CCC(=O)O)C(=O)N[C@@H](CCC(N)=O)C(=O)N[C@@H](Cc1ccccc1)C(=O)N[C@H](C(=O)N[C@@H](CCC(=O)O)C(=O)N[C@@H](CC(C)C)C(=O)N[C@@H](Cc1ccc(O)cc1)C(=O)NCC(=O)N[C@H](C(=O)N[C@@H](CCC(=O)O)C(=O)N[C@@H](CCC(=O)O)C(=O)N[C@@H](Cc1ccc(O)cc1)C(N)=O)[C@@H](C)O)C(C)C [TBK1_164–179 E] | 1 (0.11) | 2.1 ± 0.2 | 12.4 ± 0.6 | 5.1 (0.00047) | 3.2 (0.0061) | – |
| – | – | CC(=O)N[C@@H](C)C(=O)N[C@@H](CC(N)=O)C(=O)N[C@@H](CO)C(=O)N[C@@H](Cc1c[nH]c2ccccc12)C(=O)N[C@@H](CCC(N)=O)C(=O)N[C@@H](CC(C)C)C(=O)N[C@H](C(=O)N[C@@H](CCC(=O)O)C(=O)N[C@@H](CCC(=O)O)C(=O)N1CCC[C@H]1C(=O)N[C@@H](CCC(=O)O)C(=O)N[C@@H](CCCCN)C(=O)N[C@@H](CCCNC(=N)N)C(=O)N[C@@H](CCCCN)C(=O)N[C@@H](CCC(=O)O)C(=O)N[C@@H](CCC(=O)O)C(N)=O)C(C)C [DLGAP4_907–922 E] (Ac-ANSWQLVEEPEKRKEE-NH2) | −3.9 (0.00047) | – | 260 ± 25 | – | – | – |
